Source: the supplement of paper PMC10307832

Columns and labels:
Experiment in all cases: relative viability (nuclei count vs DMSO), 5 days (fraction); higher = more cells survive
Masitinib + Pemetrexed = compound: Cc1ccc(NC(=O)c2ccc(CN3CCN(C)CC3)cc2)cc1Nc1nc(-c2cccnc2)cs1 [Masitinib] + Nc1nc2[nH]cc(CCc3ccc(C(=O)N[C@@H](CCC(=O)O)C(=O)O)cc3)c2c(=O)[nH]1 [Pemetrexed] (partner 0.2 µM)
Method in brief: (§1)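 After 5 days of treatment, lung cancer cells in 1536-well plates were fixed and stained in a single step (final 0.05% Triton X-100, 1% formaldehyde, 1 ug/ml Hoechst) and their nuclei counted on 4× images. Treatment had been applied by pin tool the day after seeding as one drug alone or as a fixed anchor-drug dose with five library-drug doses (not always all listed) in √10 steps. Relative viability is the nuclei count of treated wells divided by that of vehicle wells, and values are medians of duplicate plates.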

Masitinib + Olaparib = compound: Cc1ccc(NC(=O)c2ccc(CN3CCN(C)CC3)cc2)cc1Nc1nc(-c2cccnc2)cs1 [Masitinib] + O=C(c1cc(Cc2n[nH]c(=O)c3ccccc23)ccc1F)N1CCN(C(=O)C2CC2)CC1 [Olaparib] (partner 8 µM)
Method in brief: as §1

[1] = compound: CC1=CC(=CC=C1)NC2=NC(=CS2)C3=CC=NC=C3 + C[C@]1(O)C[C@@H](c2nc(-c3ccc4ccc(-c5ccccc5)nc4c3)c3c(N)nccn32)C1 [Linsitinib] (partner 1 µM)
Method in brief: as §1

Masitinib + Crizotinib = compound: Cc1ccc(NC(=O)c2ccc(CN3CCN(C)CC3)cc2)cc1Nc1nc(-c2cccnc2)cs1 [Masitinib] + C[C@@H](Oc1cc(-c2cnn(C3CCNCC3)c2)cnc1N)c1c(Cl)ccc(F)c1Cl [Crizotinib] (partner 1 µM)
Method in brief: as §1

| Cell Line | relative viability (Masitinib + Pemetrexed; first compound 0.01 µM) | relative viability (Masitinib + Pemetrexed; first compound 0.03162 µM) | relative viability (Masitinib + Pemetrexed; first compound 0.1 µM) | relative viability (Masitinib + Pemetrexed; first compound 0.3162 µM) | relative viability (Masitinib + Pemetrexed; first compound 1 µM) | relative viability (Masitinib + Olaparib; first compound 0.01 µM) | relative viability (Masitinib + Olaparib; first compound 0.03162 µM) | relative viability (Masitinib + Olaparib; first compound 0.1 µM) | relative viability (Masitinib + Olaparib; first compound 0.3162 µM) | relative viability (Masitinib + Olaparib; first compound 1 µM) | relative viability ([1]; first compound 0.08 µM) | relative viability ([1]; first compound 0.253 µM) | relative viability ([1]; first compound 0.8 µM) | relative viability ([1]; first compound 2.53 µM) | relative viability ([1]; first compound 8 µM) | relative viability (Masitinib + Crizotinib; first compound 0.01 µM) | relative viability (Masitinib + Crizotinib; first compound 0.1 µM) | relative viability (Masitinib + Crizotinib; first compound 0.3162 µM) | relative viability (Masitinib + Crizotinib; first compound 1 µM) | relative viability (Masitinib + Crizotinib; first compound 0.03162 µM) |
| --- | --- | --- | --- | --- | --- | --- | --- | --- | --- | --- | --- | --- | --- | --- | --- | --- | --- | --- | --- | --- |
| NCI-H1993 | 0.622 | 0.58 | 0.582 | 0.483 | 0.502 | 1.13 | 0.876 | 1.19 | 1.1 | 1.01 | 0.675 | 0.605 | 0.714 | 0.698 | 0.738 | 0.942 | 0.883 | 0.755 | 0.718 |  |
| CAL-12T | 1.11 | 1.15 | 1.29 | 1.4 | 1.28 | 0.716 | 0.696 | 0.688 | 0.712 | 0.708 | 0.766 | 0.801 | 0.747 | 0.847 | 0.847 | 0.625 | 0.623 | 0.66 | 0.464 | 0.472 |
| HCC-44 | 0.494 | 0.657 | 0.49 | 0.617 | 0.578 | 0.939 | 0.968 | 0.979 | 0.916 | 0.963 | 0.59 | 0.497 | 0.486 | 0.539 | 0.662 | 0.699 | 0.875 | 0.713 | 0.739 | 0.844 |
| EKVX | 0.375 | 0.511 | 0.466 |  | 0.35 | 0.653 | 0.704 | 0.766 |  | 0.744 | 0.914 | 0.778 | 0.882 | 0.882 | 0.705 |  | 0.79 | 0.825 | 0.922 | 0.789 |
| NCI-H1666 | 0.943 | 0.842 | 0.885 | 0.708 | 0.77 | 0.736 | 0.716 | 0.724 | 0.695 | 0.73 | 0.781 | 0.614 | 0.432 | 0.474 | 0.41 | 0.91 | 1.03 | 0.744 | 0.832 | 1.17 |
| NCI-H2170 | 0.238 | 0.264 | 0.263 | 0.284 | 0.263 | 0.546 | 0.698 | 0.672 | 0.576 | 0.559 |  |  |  |  |  | 1.38 | 1.37 | 1.3 | 1.11 | 1.18 |
| NCI-H1734 | 0.408 | 0.465 | 0.396 | 0.376 | 0.404 | 0.557 | 0.564 | 0.623 | 0.618 | 0.6 | 0.828 | 0.981 | 0.869 | 0.835 | 0.719 | 0.668 | 0.862 | 0.503 | 0.615 | 0.777 |
| Calu-6 |  |  |  |  |  | 0.53 | 0.656 | 0.63 | 0.563 | 0.547 | 0.765 | 0.934 | 0.871 | 0.879 | 0.756 | 0.781 | 0.886 | 0.843 | 0.73 | 0.808 |
| EBC-1 |  |  |  |  |  | 0.679 | 0.673 | 0.814 | 0.713 | 0.615 | 0.621 | 0.698 | 0.757 | 0.686 | 0.786 | 0.191 | 0.195 | 0.162 | 0.212 | 0.205 |
